Measurements taken from paper PMC8225905, “Activation and detoxification of cassava cyanogenic glucosides by the whitefly Bemisia tabaci” (Scientific Reports, 2021).

System: T1, BtSUC5
T1 construct: full-length ORF expressed in Drosophila S2 cells; secreted protein fraction (culture supernatant) assayed
Assay: LC-MS transglucosidation assay, S2 cell culture supernatant
Assay type: biochemical, Bemisia tabaci
Settings: 1 M sucrose as glucosyl donor; phosphate buffer pH 7.0; 25 °C; 30 min; glucosyl acceptor

Compound: CC(C)(C#N)O[C@@H]1O[C@H](CO)[C@@H](O)[C@H](O)[C@H]1O [linamarin]
- Km: ~500 µM
